Read-outs that look alike come from different tables or passages of the source.
What was measured:
[1] = Thermodynamic solubility in PBS; assay type: physicochemical; settings: PBS at pH 7.4, room temperature, stirring for 16 hours
Source text: (§1) Solubility and Mouse Microsomal Stability. […] In order to improve the aqueous solubility to support additional biochemical assays we made and characterized several salt forms. The formic acid (FA) salt was recovered after reverse-phase preparative HPLC while using formic acid as a modifier. […] On stirring the free amine in 4M HCl in dioxane, the compound was converted to the HCl salt as a white solid (Scheme 1). […] As a result, the HCl-salt of NUCC-0200590 was used for biophysical assays. The inhibitor was also screened for in vitro stability towards mouse liver microsomes to evaluate its potential metabolism and suitability for future in vivo experiments. The microsomal stability was measured after a 60-minute incubation at 37° C. with mouse liver microsomes. The compound was almost completely consumed by mouse liver microsomes after a 60-minute incubation as only 3.7% of the parent compound remained.

TRIP8b and HCN1 = TRIP8b and HCN1 (Homo sapiens (Human), UniProt Q8IYB4); assay: NanoBiT live cell protein-protein interaction assay; assay type: cell-based; settings: HEK293T cells, 30 min incubation
Experimental: NanoBiT live cell protein-protein interaction assay. HEK293T cells (obtained freshly from ATCC) were plated in DMEM (Thermo Fisher, #11965-092) with 10% FBS (Thermo Fisher, #16000-044) and Pen/Strep (Thermo Fisher #15140-122) at 1 million cells per well in 6-well tissue culture treated plates. The next day, cells were co-transfected using Lipofectamine 3000 with plasmids encoding the small Nanoluciferase fragment (SmBiT) fused to the N-terminus of full-length HCN1 (SmBiT-HCN1), and the large Nanoluciferase fragment (LgBiT) fused to the N-terminus of TRIP8b(1a-4) (LgBiT-TRIP8b). The plasmids were constructed by cloning into backbone vectors from the Promega NanoBiT MCS cloning kit #N2014. As a control for specific inhibition, other cells were co-transfected with SmBiT-PRKACA and LgBiT-PRKAR2A positive control plasmids from the kit. 24 hours post-transfection, the cells were trypsinized with TrypLE (Thermo Fisher, #12604-013), washed and suspended in phenol red-free Opti-MEM I (Thermo Fisher, #11058-021), and 25,000 cells per well were plated in white 384-well tissue culture-treated plates (Greiner #781080). […] Luminescence was generated by adding Nano-Glo live cell substrate (Promega, #N2011) and incubating for 30 minutes at 37° C. prior to detecting on a luminescent reader (Biotek Neo2).

[2] = Mouse liver microsomal stability; assay type: in vitro ADME; settings: 60-minute incubation at 37° C. with mouse liver microsomes
Source text: as §1

[3] = system: HCN channels in CA1 pyramidal neurons; assay: Slice electrophysiology in CA1 pyramidal neurons; assay type: cell-based, mice; settings: 15 μM
Experimental: Slice Electrophysiology. Whole cell recordings from CA1 pyramidal neurons were performed using an electrophysiology rig described previously (Zhou et al., 2013; 2015). 300 micron sagittal sections were made from male and female mice with 5 μM CGP52432, 2 μM SR-95531, and 10 μM MK-801 to block GABAB, GABAA, and NMDAR. ACSF was composed of 125 mM NaCl, 2.5 mM KCl, 25 mM NaHCO3, 1.25 mM Na2PO4, 1 mM MgCl2, 2 mM CaCl2), and 25 mM glucose while the internal solution was 115 mM K-gluconate, 20 mM KCl, 10 mM Na2Phosphocreatinine, 2 mM MgATP, and 0.3 mM NaGTP. NUCC-0200590 was incubated in the slice chamber in a subset of experiments as described in the text. Current clamp recordings were performed at a holding potential of −70 mV.

HEK293T cells = assay: Cell viability assay (alamar Blue); assay type: cell-based; settings: 0-50 μM, 24 hours
Experimental: Cell Viability Assays. HEK293T Cells (ATCC, Manassas, Virginia) were maintained as previously described (Lyman et al., 2017b). These cells were plated at 30-50% confluence and incubated for 24 hours with the concentration of NUCC-0200590 specified in the main text. The cells were then incubated with alamar Blue assay reagent per the Manufacturer's instructions (ThermoFisher, Rockford, IL) prior to reading the plates on a plate reader.

TRIP8b-HCN1c40 = TRIP8b-HCN1c40 (Homo sapiens (Human), UniProt Q8IYB4); assay: TRIP8b-HCN1c40 AlphaScreen assay; assay type: binding
Experimental: AlphaScreen Assay. 20 nM ofGST-tagged HCNlc40 protein (corresponding to the C terminal 40 amino acids of HCN1) was incubated with 200 nM of His-tagged TRIP8b(241-602) and varying concentrations of the test compound as described in our prior report (Han et al., 2015). After a 3 h incubation, anti-GST AlphaScreen acceptor beads were added for 1.5 h followed by AlphaScreen nickel chelate donor beads for 1.5 h. AlphaScreen signal was quantified using a PerkinElmer (Waltham, MA) EnSpire multimode plate reader.

TRIP8b-HCN1c40, sequence (Q8IYB4 265-626): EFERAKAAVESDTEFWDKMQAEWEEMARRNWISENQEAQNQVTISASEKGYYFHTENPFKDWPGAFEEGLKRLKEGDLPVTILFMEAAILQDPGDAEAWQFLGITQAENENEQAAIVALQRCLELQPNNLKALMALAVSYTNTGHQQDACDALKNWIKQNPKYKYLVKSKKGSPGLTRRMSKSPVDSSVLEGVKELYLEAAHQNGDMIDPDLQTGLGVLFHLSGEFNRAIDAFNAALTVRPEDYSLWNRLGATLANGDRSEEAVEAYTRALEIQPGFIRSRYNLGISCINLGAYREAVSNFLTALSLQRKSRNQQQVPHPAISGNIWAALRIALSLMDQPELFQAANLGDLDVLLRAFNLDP
TRIP8b and HCN1, sequence (Q8IYB4 other isoform, or with tags, fused parts or gaps, species assumed): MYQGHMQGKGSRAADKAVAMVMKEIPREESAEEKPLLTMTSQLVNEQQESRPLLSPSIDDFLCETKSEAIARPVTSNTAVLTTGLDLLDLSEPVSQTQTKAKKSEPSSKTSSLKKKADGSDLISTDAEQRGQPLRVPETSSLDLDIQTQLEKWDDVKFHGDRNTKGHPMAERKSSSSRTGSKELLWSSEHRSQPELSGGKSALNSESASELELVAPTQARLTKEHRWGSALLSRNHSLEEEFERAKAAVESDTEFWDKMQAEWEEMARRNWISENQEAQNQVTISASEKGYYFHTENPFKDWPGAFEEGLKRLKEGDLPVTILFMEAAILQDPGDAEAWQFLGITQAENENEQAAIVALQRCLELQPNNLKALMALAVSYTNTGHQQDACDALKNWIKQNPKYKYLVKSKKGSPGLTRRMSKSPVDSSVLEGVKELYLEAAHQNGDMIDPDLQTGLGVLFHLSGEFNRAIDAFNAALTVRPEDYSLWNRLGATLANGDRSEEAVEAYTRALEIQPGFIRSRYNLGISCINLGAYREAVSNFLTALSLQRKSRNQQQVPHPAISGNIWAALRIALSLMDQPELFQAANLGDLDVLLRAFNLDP

| SMILES | solubility thermodynamic at 16 h ([1]; aqueous buffer, thermodynamic from solid) | disruption of TRIP8b-HCN1 interaction (NanoBiT luminescence) (TRIP8b and HCN1) | thermodynamic solubility [1] | parent compound remained [2] | sag ratio ([3]; Trip8b+/+ mice) | sag ratio ([3]; Trip8b−/− mice) | viability as percentage of 0 μM control (HEK293T cells) | IC50 (TRIP8b-HCN1c40; activity ranges, read-out: TRIP8b-HCN1c40 Alphascreen IC50 activity) | IC50 (TRIP8b-HCN1c40; most potent hit compound of in silico screen, read-out: IC50 value in the AlphaScreen assay) | IC50 (TRIP8b-HCN1c40; read-out: TRIP8b-HCN1c40 Alphascreen IC50) |
| --- | --- | --- | --- | --- | --- | --- | --- | --- | --- | --- |
| CN1CCN(Cc2cc(-c3ccc(F)cc3)ccc2OCC(=O)NCc2ccc(Cl)cc2)CC1.Cl [NUCC-0200590 HCl salt, N-(4-chlorobenzyl)-2-((4′-fluoro-3-((4-methylpiperazin-1-yl)methyl)-[1,1′-biphenyl]-4-yl)oxy)acetamide hydrochloride] | 252 µM | disrupts the interaction between fragments of TRIP8b and HCN1 in live cells | – | – | – | – | – | – | – | – |
| CN1CCN(Cc2cc(-c3ccc(F)cc3)ccc2OCC(=O)NCc2ccc(Cl)cc2)CC1 [NUCC-0200590, N-(4-chlorobenzyl)-2-((4′-fluoro-3-((4-methylpiperazin-1-yl)methyl)-[1,1′-biphenyl]-4-yl)oxy)acetamide] | – | – | completely insoluble | 3.7% | 1.14±0.01 | 1.05±0.02 | main effect of concentration | 5 to 10 µM | 19.9 ± 0.9 µM | 5.4 µM |

— US20230391714A1, “INHIBITORS OF THE INTERACTION BETWEEN TRIP8B AND HCN CHANNELS AND USES THEREOF FOR TREATING NEUROLOGICAL DISEASES AND DISORDERS” (Northwestern University, priority 2022, published 2023)
